In ChEMBL document CHEMBL1765086, “Structural modifications of UMP, UDP, and UTP leading to subtype-selective agonists for P2Y2, P2Y4, and P2Y6 receptors” (J Med Chem, 2011):

Experiments:
[1] = molecular target: T1, P2Y purinoceptor 4 (Homo sapiens, UniProt P51582); assay: Agonist activity at human recombinant P2Y4 receptor expressed in human 1321N1 cells assessed as [3H]inositol phosphate intracellular accumulation by scintillation proximity assay; assay type: functional, cell-based
[2] = molecular target: T2, P2Y purinoceptor 2 (Homo sapiens, UniProt P41231); assay: Agonist activity at human recombinant P2Y2 receptor expressed in human 1321N1 cells assessed as [3H]inositol phosphate intracellular accumulation by scintillation proximity assay; assay type: functional, cell-based
T2 sequence (P41231 whole entry): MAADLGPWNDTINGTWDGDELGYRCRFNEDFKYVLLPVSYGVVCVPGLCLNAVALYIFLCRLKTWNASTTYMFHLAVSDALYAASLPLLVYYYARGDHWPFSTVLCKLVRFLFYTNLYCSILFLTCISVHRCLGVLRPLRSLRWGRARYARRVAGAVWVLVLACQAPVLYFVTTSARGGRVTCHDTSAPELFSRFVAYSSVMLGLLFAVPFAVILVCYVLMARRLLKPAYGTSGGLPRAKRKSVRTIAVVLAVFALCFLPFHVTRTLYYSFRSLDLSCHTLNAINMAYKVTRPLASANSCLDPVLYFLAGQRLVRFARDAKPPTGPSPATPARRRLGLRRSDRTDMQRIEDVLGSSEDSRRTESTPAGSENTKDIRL

[3] = molecular target: T3, P2Y purinoceptor 6 (Homo sapiens, UniProt Q15077); assay: Agonist activity at human recombinant P2Y6 receptor expressed in human 1321N1 cells assessed as [3H]inositol phosphate intracellular accumulation by scintillation proximity assay; assay type: functional, cell-based
T3 sequence (Q15077 whole entry): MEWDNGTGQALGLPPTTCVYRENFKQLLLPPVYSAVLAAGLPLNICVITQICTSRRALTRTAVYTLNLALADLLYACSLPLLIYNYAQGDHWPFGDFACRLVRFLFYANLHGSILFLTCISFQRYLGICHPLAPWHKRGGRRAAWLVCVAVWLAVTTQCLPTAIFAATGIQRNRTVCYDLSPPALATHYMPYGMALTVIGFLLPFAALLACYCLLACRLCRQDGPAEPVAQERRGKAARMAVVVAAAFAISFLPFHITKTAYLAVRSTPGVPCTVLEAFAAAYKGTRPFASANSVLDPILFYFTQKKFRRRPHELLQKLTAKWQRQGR

[4] = molecular target: T1, P2Y purinoceptor 4; assay: Agonist activity at P2Y4 receptor; assay type: functional
[5] = organism: Homo sapiens; assay: Selectivity ratio of EC50 for human P2Y4 receptor to EC50 for human P2Y2 receptor
[6] = organism: Homo sapiens; assay: Selectivity ratio of EC50 for human P2Y6 receptor to EC50 for human P2Y2 receptor
[7] = molecular target: T3, P2Y purinoceptor 6; assay: Agonist activity at P2Y6 receptor; assay type: functional
[8] = organism: Homo sapiens; assay: Selectivity ratio of EC50 for human P2Y6 receptor to EC50 for human P2Y4 receptor
[9] = organism: Homo sapiens; assay: Selectivity ratio of EC50 for human P2Y2 receptor to EC50 for human P2Y4 receptor
[10] = organism: Homo sapiens; assay: Selectivity ratio of EC50 for human P2Y4 receptor to EC50 for human P2Y6 receptor
[11] = organism: Homo sapiens; assay: Selectivity ratio of EC50 for human P2Y2 receptor to EC50 for human P2Y6 receptor
[12] = molecular target: T2, P2Y purinoceptor 2; assay: Agonist activity at P2Y2 receptor; assay type: functional
[13] = molecular target: T2, P2Y purinoceptor 2; assay: Ratio of compound EC50 to UDP EC50 for human recombinant P2Y2 receptor

T1 sequence (P51582 whole entry): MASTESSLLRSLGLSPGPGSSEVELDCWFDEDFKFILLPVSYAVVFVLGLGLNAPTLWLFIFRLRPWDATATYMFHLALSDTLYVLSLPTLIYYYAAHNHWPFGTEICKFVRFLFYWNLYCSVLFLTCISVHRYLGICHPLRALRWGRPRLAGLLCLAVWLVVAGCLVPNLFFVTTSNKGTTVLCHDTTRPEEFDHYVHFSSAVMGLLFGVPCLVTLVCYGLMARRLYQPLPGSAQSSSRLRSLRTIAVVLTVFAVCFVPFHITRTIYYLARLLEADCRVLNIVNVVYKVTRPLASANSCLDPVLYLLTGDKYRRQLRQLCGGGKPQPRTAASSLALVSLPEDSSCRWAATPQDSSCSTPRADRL

| EC50 [1] | EC50 [2] | EC50 [3] | Structure (SMILES) | other results |
| --- | --- | --- | --- | --- |
| 4.33 µM | 1.5 µM | > 100 µM | CCSc1nc(=O)ccn1[C@@H]1O[C@H](COP(=O)(O)O)[C@@H](O)[C@H]1O | – |
| ≥ 100 µM | 0.604 µM | ≥ 100 µM | Nc1nc(=O)ccn1[C@@H]1O[C@H](COP(=O)(O)OP(=O)(O)O)[C@@H](O)[C@H]1O | Ratio EC50 [5]: > 100; Ratio EC50 [6]: > 100 |
| > 100 µM | > 100 µM | > 100 µM | CNc1nc(=O)ccn1[C@@H]1O[C@H](COP(=O)(O)O)[C@@H](O)[C@H]1O | – |
| > 100 µM | ≥ 100 µM | > 100 µM | O=c1ccn([C@@H]2O[C@H](COP(=O)(O)O)[C@@H](O)[C@H]2O)c(SCc2ccccc2)n1 | – |
| – | > 100 µM | > 100 µM | Nc1nc(=O)ccn1[C@@H]1O[C@H](COP(=O)(O)O)[C@@H](O)[C@H]1O | Ratio EC50 [8]: > 20; Ratio EC50 [9]: > 20; Ratio EC50 [5]: > 100; Ratio EC50 [6]: > 100 |
| > 100 µM | 9.9 µM | 9.8 µM | COc1nc(=O)ccn1[C@@H]1O[C@H](COP(=O)(O)O)[C@@H](O)[C@H]1O | – |
| > 100 µM | 4.8 µM | 6.2 µM | CCCSc1nc(=O)ccn1[C@@H]1O[C@H](COP(=O)(O)O)[C@@H](O)[C@H]1O | – |
| 5.98 µM | 6.2 µM | 6.8 µM | O=c1ccn([C@@H]2O[C@H](COP(=O)(O)OP(=O)(O)O)[C@@H](O)[C@H]2O)c(SCc2ccccc2)n1 | – |
| > 100 µM | 1.3 µM | > 100 µM | O=c1ccn([C@@H]2O[C@H](COP(=O)(O)O)[C@@H](O)[C@H]2O)c(SCCc2ccccc2)n1 | Ratio EC50 [5]: > 100; Ratio EC50 [6]: 100 |
| 1.52 µM | 0.523 µM | 4.7 µM | CSc1nc(=O)ccn1[C@@H]1O[C@H](COP(=O)(O)OP(=O)(O)O)[C@@H](O)[C@H]1O | Ratio EC50 [13]: 33 |
| ≥ 100 µM | 0.544 µM | 2.5 µM | O=c1ccn([C@@H]2O[C@H](COP(=O)(O)OP(=O)(O)O)[C@@H](O)[C@H]2O)c(SCCc2ccccc2)n1 | – |
| 4.9 µM | 1.2 µM | ≥ 100 µM | CCCSc1nc(=O)ccn1[C@@H]1O[C@H](COP(=O)(O)OP(=O)(O)O)[C@@H](O)[C@H]1O | – |
| > 100 µM | 2.9 µM | > 100 µM | CSc1nc(=O)ccn1[C@@H]1O[C@H](COP(=O)(O)O)[C@@H](O)[C@H]1O | – |

More lines, now with the values behind:

| Structure (SMILES) | EC50 [1] | EC50 [2] | EC50 [3] | other results |
| --- | --- | --- | --- | --- |
| O=c1ccn([C@@H]2O[C@H](COP(=O)(O)OP(=O)(O)O)[C@@H](O)[C@H]2O)c(=O)[nH]1 [URIDINE_DIPHOSPHATE] | 14 µM | 16.5 µM | 0.048 µM | – |
| O=c1[nH]c(=O)n([C@@H]2O[C@H](COP(=O)(O)OP(=O)(O)OP(=O)(O)Nc3ccccc3)[C@@H](O)[C@H]2O)cc1Br | > 100 µM | 1.8 µM | 6.1 µM | – |
| O=C(Cn1c(=O)ccn([C@@H]2O[C@H](COP(=O)(O)OP(=O)(O)C(F)(F)P(=O)(O)O)[C@@H](O)[C@H]2O)c1=O)c1ccccc1 | 3.93 µM | 1.2 µM | 1.46 µM | – |
| O=c1[nH]c(=S)ccn1[C@@H]1O[C@H](COP(=O)(O)OP(=O)(O)OP(=O)(O)O)[C@@H](O)[C@H]1O | 0.023 µM | 0.026 µM | – | EC50 [4]: 0.023 µM |
| COc1nc(=O)ccn1[C@@H]1O[C@H](COP(=O)(O)OP(=O)(O)O)[C@@H](O)[C@H]1O | 4.49 µM | 0.907 µM | 1.37 µM | – |
| O=c1ccn([C@@H]2O[C@H](COP(=O)(O)OP(=O)(O)OP(=O)(O)O)[C@@H](O)[C@H]2O)c(=O)[nH]1 [URIDINE TRIPHOSPHATE] | 0.0884 µM | 0.0179 µM | – | – |
| O=c1[nH]c(=S)ccn1[C@@H]1O[C@H](COP(=O)(O)O)[C@@H](O)[C@H]1O | > 100 µM | > 100 µM | > 100 µM | – |
| O=c1[nH]c(=S)ccn1[C@@H]1O[C@H](COP(=O)(O)OP(=O)(O)C(F)(F)P(=O)(O)O)[C@@H](O)[C@H]1O | 9.3 µM | 0.134 µM | 7 µM | Ratio EC50 [5]: > 60; Ratio EC50 [6]: > 60 |
| CNc1nc(=O)ccn1[C@@H]1O[C@H](COP(=O)(O)OP(=O)(O)O)[C@@H](O)[C@H]1O | ≥ 100 µM | 7.6 µM | > 100 µM | – |
| O=c1ccn([C@@H]2O[C@H](COP(=O)(O)OP(=O)(O)OP(=O)(O)OP(=O)(O)OC[C@H]3O[C@@H](n4ccc(=O)[nH]c4=O)[C@H](O)[C@@H]3O)[C@@H](O)[C@H]2O)c(=O)[nH]1 [DIQUAFOSOL TETRASODIUM] | – | – | – | EC50 [7]: 2 µM; EC50 [4]: 0.4 µM |
| O=C(Cn1c(=O)ccn([C@@H]2O[C@H](COP(=O)(O)OP(=O)(O)C(Cl)(Cl)P(=O)(O)O)[C@@H](O)[C@H]2O)c1=O)c1ccccc1 | 7.3 µM | 0.826 µM | 0.142 µM | Ratio EC50 [10]: 50; Ratio EC50 [11]: 6 |
| Nc1ccn([C@H]2C[C@H](O)[C@@H](COP(=O)(O)OP(=O)(O)OP(=O)(O)OP(=O)(O)OC[C@H]3O[C@@H](n4ccc(=O)[nH]c4=O)[C@H](O)[C@@H]3O)O2)c(=O)n1 [DENUFOSOL TETRASODIUM] | – | – | – | EC50 [12]: 0.2 µM; EC50 [7]: > 1 µM; EC50 [4]: 0.8 µM |
| O=c1ccn([C@@H]2O[C@H](COP(=O)(O)OP(=O)(O)C(F)(F)P(=O)(O)O)[C@@H](O)[C@H]2O)c(=O)[nH]1 | > 100 µM | 4.9 µM | 2.63 µM | Ratio EC50 [6]: 2 |
| O=c1[nH]c(=S)ccn1[C@@H]1O[C@H](COP(=O)(O)OP(=O)(O)C(Cl)(Cl)P(=O)(O)O)[C@@H](O)[C@H]1O | 7.87 µM | 1.81 µM | 8.1 µM | – |
| O=c1ccn([C@@H]2O[C@H](COP(=O)(O)OP(=O)(O)C(Cl)(Cl)P(=O)(O)O)[C@@H](O)[C@H]2O)c(=S)[nH]1 | 3.85 µM | 0.794 µM | 7.7 µM | – |
| O=c1ccn([C@@H]2O[C@H](COP(=O)(O)OP(=O)(O)C(Cl)(Cl)P(=O)(O)O)[C@@H](O)[C@H]2O)c(=O)[nH]1 | ≥ 100 µM | 0.612 µM | 6.2 µM | – |
